From patent publication US9249118B2, “Purifying crude furan 2,5-dicarboxylic acid by hydrogenation” (Eastman Chemical Company, priority 2012, dated 2016)

Assay: solubility of FDCA in water at different temperatures (FIG. 1)
Type: physicochemical
Settings: ambient pressure, as the water temperature increases beyond 130° C. (FIG. 1)
Method: FIG. 1 depicts the solubility of FDCA in water at different temperatures.
Suitable dissolution temperatures are those effective to dissolve the desired amount of FDCA solids into solution. The hydrogenation solvent composition may be added at (by pre-heating) or heated in the dissolution zone to a temperature of at least 120° C. under a pressure and time sufficient to allow for at least 80 wt. % dissolution, although to reduce the time required for dissolution, it is desirable that the hydrogenation solvent composition temperature is at least 130° C., or at least 135° C., or at least 140° C., or at least 150° C.

O=C(O)c1ccc(C(=O)O)o1 [FDCA, Furan 2,5-dicarboxylic acid]
solubility of FDCA in water: increases dramatically
